Data from US9598365B2, “Method for synthesizing cycloalkanyl[b]indoles, cycloalkanyl[b]benzofurans, cycloalkanyl[b]benzothiophenes, compounds and methods of use” (Trustees of Dartmouth College, priority 2012, dated 2017).
Values joined by “and” are separate entries in the source; they are usually repeats but may differ in a detail not shown here. Equal entries are not always repeated.

test system: hNCI-H716; experiment: hNCI-H716 GLP-1 secretion; type: cell-based; settings: 2 μM; GLP-1 secretion, single point; read-out: Primary SP hNCI (% Stim.)
Source text: Selected compounds of this invention were screened for K-Ras Wnt synthetic lethal, anti-angiogenic activity, Wnt pathway modulatory activity, insulin and GLP-1 secretion modulatory activity, GPR119 receptor agonist activity, mGlu2R antagonist activity, CGRP receptor antagonist activity, Apelin receptor agonist activity and hexokinase 2 inhibitory activity using the PD^2 and TD^2 Screening Panel (Eli Lilly & Company). See Lee, et al. (2011) J. Biomol. Screen. 16:588-602.
(§1) In light of the above results, additional compounds (Table 7) were prepared and phenotypic assays were carried out using hNCI-H716 and mSTC-1 cell lines to monitor GLP-1 secretion (single point (SP) and concentration response curves (CRC)) (Table 8), as well as a secondary assay with pituitary cells (Table 9).

Going from `CC1=C(C)CC2(CCCCC2)c2c(n(C)c3ccccc23)C1` [Compound 11l] to `Cn1c2c(c3ccccc31)C1(CCCCC1)[C@@H]1C=C[C@H]2CC1` [Compound 11k], the activation at 2 µM rises from -2% to 3.1%.

First: C[C@]12c3ccccc3N[C@H]1C1CCC2C1=O (some centres unmarked) [Compound 22]
Second: O=C1C2CCC1[C@@]1(CCO)c3ccccc3N[C@@H]21 (some centres unmarked) [Compound 21]
The activation at 2 µM of the first is lower: -1.5% for the first, 4.3% for the second.

First: Cn1c2c(c3ccccc31)C1(CCCC1)CC2c1ccccc1 (centres unmarked) [Compound 19u]
Second: Cn1c2c(c3ccccc31)C1(CCCC1)CC2c1ccc2ccccc2c1 (centres unmarked) [Compound 19x]
The activation at 2 µM of the first is higher: -0.8% for the first, -3.1% for the second.

Compared with `Cn1c2c(c3ccccc31)C(C)(C)[C@@H]1C=C[C@H]2C1` [Compound 11g], `Cn1c2c(c3ccccc31)C1(CCCC1)[C@@H]1C=C[C@H]2C1` [Compound 11i] is higher in activation at 2 µM: -0.8% for the first, 0% for the second.

`Cc1ccc(C2CC(C)(C)c3c2[nH]c2ccccc32)cc1` (centres unmarked) [Compound 19h] and `Cc1ccc(C2CC(C)(C)c3c2[nH]c2ccc(C)cc32)cc1` (centres unmarked) [Compound 19d] are the same in activation at 2 µM: 0% for the first, 0% for the second.

Going from `Cn1c2c(c3ccccc31)[C@@H](c1cccs1)[C@@H]1C=C[C@H]2C1` [Compound 11e] to `Cn1c2c(c3ccccc31)[C@@H](c1ccco1)[C@@H]1C=C[C@H]2C1` [Compound 11d], the activation at 2 µM falls from -0.5% to -2.5%.

First: CC1(C)c2c([nH]c3ccc(F)cc23)C2C=CC1C2 (centres unmarked) [Compound 11w]
Second: CC1(C)c2c([nH]c3ccc(O)cc23)C2C=CC1C2 (centres unmarked) [Compound 11x]
The activation at 2 µM of the first is lower: 1.4% for the first, 3.4% for the second.

Compared with `CC1=CCc2c(c3ccccc3n2C)C(c2ccccc2)C1` (centres unmarked) [Compound 11m], `Cn1c2c(c3ccccc31)[C@@H](c1ccccc1)[C@@H]1C=C[C@H]2C1` [Compound 11a] is lower in activation at 2 µM: -2.2% for the first, -2.8% for the second.

Going from `CC[C@@H]1c2c(n(C)c3ccccc23)[C@H]2C=C[C@@H]1C2` [Compound 11f] to `Cn1c2c(c3ccccc31)C1(CCCCC1)[C@@H]1C=C[C@H]2C1` [Compound 11j], the activation at 2 µM rises from -1.1% to -0.3%.

Going from `O=C1OC2CCC1[C@]13CCO[C@]21Nc1ccccc13` (some centres unmarked) [Compound 28] to `COC(=O)[C@@H]1CC[C@H](O)[C@@]2(C)c3ccccc3N(C)[C@@H]12` [Compound 26], the activation at 2 µM rises from 1.2% to 1.4%.

same assay, conditions: 20 μM; GLP-1 secretion, single point; read-out: Primary SP hNCI (% Stim.)

First: CC1=C(C)CC2(CCCCC2)c2c(n(C)c3ccccc23)C1 [Compound 11l]
Second: Cn1c2c(c3ccccc31)C1(CCCCC1)[C@@H]1C=C[C@H]2CC1 [Compound 11k]
The activation at 20 µM of the first is lower: -3.3% for the first, -1.9% for the second.

Going from `C[C@]12c3ccccc3N[C@H]1C1CCC2C1=O` (some centres unmarked) [Compound 22] to `O=C1C2CCC1[C@@]1(CCO)c3ccccc3N[C@@H]21` (some centres unmarked) [Compound 21], the activation at 20 µM rises from -1.3% to 3.4%.

Going from `Cn1c2c(c3ccccc31)C1(CCCC1)CC2c1ccccc1` (centres unmarked) [Compound 19u] to `Cn1c2c(c3ccccc31)C1(CCCC1)CC2c1ccc2ccccc2c1` (centres unmarked) [Compound 19x], the activation at 20 µM rises from -3.8% to -3.3%.

Compared with `Cn1c2c(c3ccccc31)C(C)(C)[C@@H]1C=C[C@H]2C1` [Compound 11g], `Cn1c2c(c3ccccc31)C1(CCCC1)[C@@H]1C=C[C@H]2C1` [Compound 11i] is lower in activation at 20 µM: -2.7% for the first, -6% for the second.

`Cc1ccc(C2CC(C)(C)c3c2[nH]c2ccccc32)cc1` (centres unmarked) [Compound 19h] and `Cc1ccc(C2CC(C)(C)c3c2[nH]c2ccc(C)cc32)cc1` (centres unmarked) [Compound 19d] are the same in activation at 20 µM: 0% for the first, 0% for the second.

Compared with `Cn1c2c(c3ccccc31)[C@@H](c1cccs1)[C@@H]1C=C[C@H]2C1` [Compound 11e], `Cn1c2c(c3ccccc31)[C@@H](c1ccco1)[C@@H]1C=C[C@H]2C1` [Compound 11d] is higher in activation at 20 µM: -2.4% for the first, -1% for the second.

Going from `CC1(C)c2c([nH]c3ccc(F)cc23)C2C=CC1C2` (centres unmarked) [Compound 11w] to `CC1(C)c2c([nH]c3ccc(O)cc23)C2C=CC1C2` (centres unmarked) [Compound 11x], the activation at 20 µM falls from 41.3% to -0.8%.

Going from `CC1=CCc2c(c3ccccc3n2C)C(c2ccccc2)C1` (centres unmarked) [Compound 11m] to `Cn1c2c(c3ccccc31)[C@@H](c1ccccc1)[C@@H]1C=C[C@H]2C1` [Compound 11a], the activation at 20 µM rises from -1% to -0.5%.

First: CC[C@@H]1c2c(n(C)c3ccccc23)[C@H]2C=C[C@@H]1C2 [Compound 11f]
Second: Cn1c2c(c3ccccc31)C1(CCCCC1)[C@@H]1C=C[C@H]2C1 [Compound 11j]
The activation at 20 µM of the first is higher: -2.4% for the first, -3.3% for the second.

Going from `O=C1OC2CCC1[C@]13CCO[C@]21Nc1ccccc13` (some centres unmarked) [Compound 28] to `COC(=O)[C@@H]1CC[C@H](O)[C@@]2(C)c3ccccc3N(C)[C@@H]12` [Compound 26], the activation at 20 µM falls from 4% to -1.3%.

same assay, conditions: GLP-1 secretion, concentration response curve; read-out: Primary CRC (EC50, μM) hNCI

`CC1(C)c2c([nH]c3ccc(F)cc23)C2C=CC1C2` (centres unmarked) [Compound 11w] was tested, and the EC50 was 22.4 µM and 30.3 µM.

In the case of `CC1(C)c2c([nH]c3ccc(O)cc23)C2C=CC1C2` (centres unmarked) [Compound 11x], the EC50 is reported as over 40 µM.

test system: mSTC-1; experiment: mSTC-1 GLP-1 secretion; type: cell-based; settings: 2 μM, single point, read-out: Primary SP mSTC (% Stim.)
Procedure: as §1

First: C[C@]12c3ccccc3N[C@H]1C1CCC2C1=O (some centres unmarked) [Compound 22]
Second: O=C1C2CCC1[C@@]1(CCO)c3ccccc3N[C@@H]21 (some centres unmarked) [Compound 21]
The activation at 2 µM of the first is lower: -1.8% for the first, -1% for the second.

Going from `Cc1ccc(C2CC(C)(C)c3c2[nH]c2ccccc32)cc1` (centres unmarked) [Compound 19h] to `Cc1ccc(C2CC(C)(C)c3c2[nH]c2ccc(C)cc32)cc1` (centres unmarked) [Compound 19d], the activation at 2 µM falls from 93.2% to 10.3%.

`O=C1OC2CCC1[C@]13CCO[C@]21Nc1ccccc13` (some centres unmarked) [Compound 28] and `COC(=O)[C@@H]1CC[C@H](O)[C@@]2(C)c3ccccc3N(C)[C@@H]12` [Compound 26] are the same in activation at 2 µM: -2.4% for the first, -2.4% for the second.

same assay, conditions: 20 μM, single point, read-out: Primary SP mSTC (% Stim.)

Compared with `C[C@]12c3ccccc3N[C@H]1C1CCC2C1=O` (some centres unmarked) [Compound 22], `O=C1C2CCC1[C@@]1(CCO)c3ccccc3N[C@@H]21` (some centres unmarked) [Compound 21] is lower in activation at 20 µM: 7.4% for the first, -2.4% for the second.

Going from `Cc1ccc(C2CC(C)(C)c3c2[nH]c2ccccc32)cc1` (centres unmarked) [Compound 19h] to `Cc1ccc(C2CC(C)(C)c3c2[nH]c2ccc(C)cc32)cc1` (centres unmarked) [Compound 19d], the activation at 20 µM falls from 107% to 53.6%.

Going from `O=C1OC2CCC1[C@]13CCO[C@]21Nc1ccccc13` (some centres unmarked) [Compound 28] to `COC(=O)[C@@H]1CC[C@H](O)[C@@]2(C)c3ccccc3N(C)[C@@H]12` [Compound 26], the activation at 20 µM falls from 4.4% to -3.1%.

same assay, conditions: concentration response curve, read-out: Primary CRC (EC50, μM) mSTC

For `CC1(C)c2c([nH]c3ccc(F)cc23)C2C=CC1C2` (centres unmarked) [Compound 11w], the EC50 was 23.6 µM and 22.8 µM.

Compound `CC1(C)c2c([nH]c3ccc(O)cc23)C2C=CC1C2` (centres unmarked) [Compound 11x] has an EC50 of over 40 µM.
